The text below walks through data of patent US7608407B2, “Fluorescence polarization assay for determining histidine decarboxylase activity” (Boehringer Ingelheim Pharmaceuticals, Inc., priority 2004, dated 2009).

In experiment [1] the target is anti-histamine antibody D22.12. Put plainly: Displacement of FITC-histamine binding to the anti-histamine antibody by competitor ligand. More on the design: species or system mice. The method, then: Triplicate determinations in a 96-well plate were performed as described in the Methods, with 6 nM FITC-histamine, 50 nM anti-histamine antibody, and the indicated concentration of competitor ligand.
(§1) In the standard assay, HDC, diluted to 90 nM in HDC Buffer plus 0.9 mM DTT and 99 μM PLP, was added to a black opaque 384-well plate in 20 μL. Test compound in HDC Buffer plus 6% DMSO or buffer alone was added to the plate in 10 μL. 36 nM FITC-histidine and 3.6 mM histidine were combined in FP Buffer and transferred to the plate in 10 μL. Finally, 90 nM […] antibody was added in 20 μL of FP Buffer. Thus, the final concentrations in the assay were: HDC 30 nM, FITC-histidine 6 nM, histidine 600 μM, anti-histamine antibody 30 nM, DMSO 1%. The plate was incubated at 37° C. for 90 minutes. The fluorescence polarization signal was read on an LJL Analyst (Molecular Devices, Sunnyvale, Calif.) with excitation at 485 nm, emission at 530 nm, a fluorescein dichroic mirror at 505 nm and G factor set to 1. A 96-well plate version of the assay, used in assay development, was performed as described above with twice the volumes indicated for 384-well plates.
We first determined the affinity of the probe for the antibody and the specificity of the interaction, both of which are crucial to constructing a robust assay in a competitive mode. […] The probe concentration was held at 6 nM and the antibody concentration varied over approximately 3 logs. […] Probe and antibody concentrations were held constant at 6 and 50 nM, respectively, while the concentrations of histamine and histidine were varied as shown.

The next experiment has as its target T1, HDC (Mus musculus, UniProt P23738).
T1 sequence (P23738 1-662): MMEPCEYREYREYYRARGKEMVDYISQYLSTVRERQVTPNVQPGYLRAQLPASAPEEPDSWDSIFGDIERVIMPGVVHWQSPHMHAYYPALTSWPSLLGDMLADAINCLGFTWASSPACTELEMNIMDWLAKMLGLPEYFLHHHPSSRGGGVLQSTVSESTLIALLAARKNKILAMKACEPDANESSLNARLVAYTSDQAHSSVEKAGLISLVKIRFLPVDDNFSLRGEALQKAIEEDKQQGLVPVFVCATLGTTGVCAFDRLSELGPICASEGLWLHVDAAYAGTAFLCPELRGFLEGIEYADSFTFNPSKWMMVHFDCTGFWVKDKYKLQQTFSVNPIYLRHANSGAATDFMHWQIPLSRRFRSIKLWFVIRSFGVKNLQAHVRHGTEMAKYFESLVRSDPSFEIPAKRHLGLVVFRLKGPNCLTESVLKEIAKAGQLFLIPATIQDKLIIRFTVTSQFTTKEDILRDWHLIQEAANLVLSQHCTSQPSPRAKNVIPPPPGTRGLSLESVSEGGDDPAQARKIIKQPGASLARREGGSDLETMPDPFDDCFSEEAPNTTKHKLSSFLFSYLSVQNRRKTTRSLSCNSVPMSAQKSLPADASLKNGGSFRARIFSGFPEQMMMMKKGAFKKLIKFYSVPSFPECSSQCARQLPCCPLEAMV
The following applies: Watabe et al 1992; read-out: Reported Km; cited from earlier work.

In a further experiment the target is T2, human HDC (Homo sapiens, UniProt P19113).
T2 construct: containing the first 1431 bases (amino acid residues 1-477) of HDC; made in house; host or cells: Sf9 insect cells (baculovirus, pDEST 20)
T2 sequence (P19113 1-477 S148Q): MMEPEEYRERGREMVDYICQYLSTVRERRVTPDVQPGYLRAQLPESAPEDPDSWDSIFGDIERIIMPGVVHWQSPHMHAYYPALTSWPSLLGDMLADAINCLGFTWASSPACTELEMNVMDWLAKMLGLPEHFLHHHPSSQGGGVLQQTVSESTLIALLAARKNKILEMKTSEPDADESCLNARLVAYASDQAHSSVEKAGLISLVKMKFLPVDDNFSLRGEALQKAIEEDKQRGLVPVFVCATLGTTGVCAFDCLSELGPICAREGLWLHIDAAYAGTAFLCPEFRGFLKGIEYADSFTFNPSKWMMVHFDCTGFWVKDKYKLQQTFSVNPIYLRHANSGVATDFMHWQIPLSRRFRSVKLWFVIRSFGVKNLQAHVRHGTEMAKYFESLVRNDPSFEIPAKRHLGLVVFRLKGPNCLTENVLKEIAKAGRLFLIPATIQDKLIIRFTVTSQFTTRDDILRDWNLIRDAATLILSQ
Put plainly: Histidine decarboxylase fluorescence polarization standard assay. Format: biochemical. As to conditions: standard assay: 30 nM HDC, 600 μM histidine, 90 minutes at 37° C.; read-out: IC50 for inhibition of HDC. How it is done: as §1
A general note: Fluorescence polarisation rises when a labelled molecule tumbles more slowly, as on binding a larger partner.

In experiment [2] the target is anti-histamine antibody D22.12. As to conditions: read-out: Kd (dissociation constant) of probe for antibody; FITC-histamine at 6 nM, antibody concentration varied over approximately 3 logs. The method, then: as §1
We first determined the affinity of the probe for the antibody and the specificity of the interaction, both of which are crucial to constructing a robust assay in a competitive mode. […] The probe concentration was held at 6 nM and the antibody concentration varied over approximately 3 logs. […]

By IC50 is commonly meant the concentration needed to halve the response being measured. For `NCCc1c[nH]cn1` [Histamine, histamine], in experiment [1] (6 nM FITC-histamine, 50 nM anti-histamine antibody, read-out: IC50 for competition with the probe for antibody binding), the IC50 turned out to be 135 µM. In experiment [1] (FP assay), the “Selectivity for histamine over histidine” value is recorded as greater than 100 fold. A word on the Km: it is the concentration of substrate that gives half-maximal velocity. In the case of `N[C@@H](Cc1c[nH]cn1)C(=O)O` [Histidine, L-Histidine], in experiment [1] (6 nM FITC-histamine, 50 nM antibody, over the 5 log range examined), the “Competition with FITC-histamine for binding to the antibody” value is given as “unable to compete”. The Km on HDC is 200 to 400 µM. As for `COC(=O)C(N)Cc1c[nH]cn1` (stereo not shown) [methyl ester histidine], the 50% inhibitory concentration (IC50) at human HDC was determined as 7.7 µM. Still for that read-out and setting: the value for `N[C@@](CF)(Cc1cnc[nH]1)C(=O)O` [α-fluoromethyl histidine] was 1.4 µM. A word on the Kd: it is a measure of binding affinity in units of concentration. As for “N-[3′,6′-dihydroxy-3-oxospiro[isobenzofuran-[(3H), 9′-[9H]xanthene-5(or 6)-yl]-N′-[2-(1H-imidazol-4-yl)ethyl]-2,4-dimethylthiourea, disodium salt [FITC-histamine]”, the dissociation constant (Kd) in experiment [2] was determined as 3.9 nM.
